Our source for the IC50 values is patent US10590081B2, “Guanidine compounds and use thereof” (ImmunoMet Therapeutics Inc., priority 2015, dated 2020).

Structures are written as SMILES. Structures can show the parent of a compound that is named as a salt. Some results are limits rather than exact numbers.

The test system of one assay is SK-MEL-28 cells. Put plainly: Cytotoxicity in low glucose condition (MTT assay). The settings on record: Homo sapiens, SK-MEL-28, 72 h, 0.75 mM glucose, 72 hours treatment, read-out: SK-MEL-280.75 mM glucose cell viability (IC50 μM). Format: cell-based. From the text:
Cytotoxicity Assay in Low Glucose Condition
The inhibition of oxidative phosphorylation (OXPHOS) is not cytotoxic to cells in normal glucose condition, because it is postulated that normal cells have compensatory mechanism under energy stress conditions such as low glucose. However OXPHOS inhibitors show cytotoxic effect on cells in the glucose deprived condition (BirsoyK, 2014). The glucose deprived condition is observed in tumor microenvironment potentially due to poor angiogenesis. Therefore the OXPHOS inhibitors may show anti-cancer effect on cancer cells in low glucose condition that may depict tumor microenvironment.
The compounds of the present invention were evaluated their cytotoxicity in SK-MEL-28, melanoma with 0.75 mM glucose supplement. The cytotoxic effect is compared with the cytotoxicity caused by phenformin. The cytotoxicity in low glucose condition is correlated with inhibition of oxygen consumption in mitochondria.
SK-MEL-28 (HTB-72) is a melanoma cell line obtained from ATCC (MA) and cultured in RPMI 1640 media (Lifetechnologies, CA) with supplement of 10% FBS and antibiotic-antimycotic (Lifetechnologies, CA). RPMI 1640 (−Glucose) was used to prepare low glucose media and 0.75 mM glucose was supplied with D-(+)-glucose solution from Sigma. SK-MEL-28 cells were separated from culture plate using 0.5% trypsin-EDTA and 1,250 cells were plated in 96-well plate with low glucose media. After incubation at 37° C. for 24 hour, 5% CO2, the cells were treated with the compounds of present invention in FBS-free media for 72 hours. The cytotoxicity was measured by the MTT (AMRESCO, OH) assay. NADH-dependent cellular oxidoreductase reduces MTT to its insoluble […] with purple color. The enzyme depends on cell number or energy state of cells. 10 μl of 5 mg/ml MTT solution was added to each well of the assay plate and skip the well for blank. The plate was incubated at 37° C. and 5% CO2 for 2 hours. The MTT solution was removed from each well and 100 μl of DMSO was added. The plate was read by VICTOR X3 Multilabel Counter at the wavelength of 550 nm. In Table 2, the levels of IC50 are evaluated by the following criteria.
According to the concentration of compound for killing the half of cell populations (the levels of IC50), the compounds were classified into A, B and C, when the compounds were treated on SK-MEL-28 cells at 0.75 mM glucose.

Another assay relates to A549 cells. The assay is described as follows: Test for inhibition of OCR and enhancement of ECAR (XF Analyzer). Format: cell-based. The following applies: Homo sapiens, 24 hrs treatment, oxygen consumption rate. An excerpt:
Measurement of Mitochondrial Complex I Inhibition
The electron transfer complex in mitochondria is composed of 5 complexes. The complex I accept electrons from NADH produced from glycolysis and TCA cycle and the electrons move to complex […] and the electron is finally transferred to O2 and water molecule is generated. During the electron transfer, proton gradient is generated and the chemical gradient is a driving source to synthesize ATP at complex V. The mitochondrial inhibition of complex I indirectly assessed by measuring the oxygen consumption rate (OCR) at complex IV. […] The solution outside of cells becomes acidic (lower pH) as lactate is transported to outside of cells. OCR and Extracellular acidification rate (ECAR) are determined by XF Analyzer (Seahorse Biosciences).
A549 cells were purchased from American Type Tissue Culture Collection (CCL-185™) and cultured in RPMI 1640 supplied with 10% fetal bovine serum (FBS) and antibiotic-antimycotic (Lifetech, CA). A549 cells were separated with 0.5% Trypsin-EDTA and 3,000 cells were plated on 1 mg/ml poly-D-lysine (Sigma, P6407) coated XF 96 well […]. A549 cells were allowed to adhere to the wells for 24 hours under the condition of temperature, 37° C. and 5% CO2. The sensor cartridge of XF Analyzer was soaked in 200 μl of Calibrant solution (Seahorse, MA) in a clear 96-well plate at 37° C. for 24 hours. The compounds of the present invention were diluted with RPMI 1640 without FBS, transferred to A549 cells on XF 96 well plate, and incubated further for 23 hours at 37° C. and 5% CO2. After incubation, the compound solution was exchanged with pre-warmed and pH adjusted (pH7.4) XF assay media (Seahorse) supplied with 15 mM D-glucose (Sigma), 15 mM sodium pyruvate (Lifetechnologies, CA) and 4 mM L-glutamine (Lifetechnologies, CA). The compounds of present invention were prepared in XF Assay media and added to the assay plate. The assay plate was equilibrated in XF Analyzer for 1 hour, and the reading were started by sensor cartridge. The cytotoxicity assay was followed using Cyquant (Lifetechnologies, CA) in order to calibrate the inhibition with cytotoxicity of compounds. The concentrations of the compounds were tested at 0, 0.5, 1, 5, 10 and 20 μM and IC50 value was obtained from the inhibited values. That is, from OCR inhibition values at each concentration of the compound, IC50 was calculated according to Prism's dose response curve fitting.
In Table 1, the levels of OCR IC50 are evaluated by the following.
According to the test results of the compounds, the compounds were classified into A, B and C.

For `N=C(NC(=N)N1CCC(F)(F)CC1)Nc1ccccc1` [Example 1, N—(N-phenylcarbamimidoyl)-4,4-difluoropiperidine-1-carboximidamide hydrochloride], in the assay on SK-MEL-28 cells, the 50% inhibitory concentration (IC50) is more than 15 µM.

As to `N=C(NC(=N)N1CCC(F)(F)CC1)Nc1ccc2c(c1)CCCC2` [Example 2, N—(N-(5,6,7,8-teterhydronaphthalene-2-yl)carbamimidoyl)-4,4-difluoro piperidine-1-carboximidamide hydrochloride], the IC50 was 6 to 15 µM in the assay on SK-MEL-28 cells and more than 4 µM with A549 cells.

`N=C(NC(=N)N1CCC(F)(F)CC1)Nc1ccc(Cl)c(Cl)c1` [Example 3, N—(N-(3,4-dichlorophenyl)carbamimidoyl)-4,4-difluoropiperidine-1-carboximidamide hydrochloride]: the values for the 50% inhibitory concentration (IC50) in the assay on SK-MEL-28 cells and with A549 cells were less than 6 µM and more than 4 µM, respectively. For the compound `N=C(NC(=N)N1CCC(F)(F)CC1)Nc1ccccc1Br` [Example 4, N—(N-(2-bromophenyl)carbamimidoyl)-4,4-difluoropiperidine-1-carboximidamide hydrochloride], the IC50 in the assay on SK-MEL-28 cells is more than 15 µM. With `N=C(NC(=N)N1CCC(F)(F)CC1)Nc1cccc(Br)c1` [Example 5, N—(N-(3-bromophenyl)carbamimidoyl)-4,4-difluoropiperidine-1-carboximidamide hydrochloride], the values for the IC50 with SK-MEL-28 cells and in the assay with A549 cells were 6 to 15 µM and more than 4 µM, respectively. The like results for `N=C(NC(=N)N1CCC(F)(F)CC1)Nc1ccc(Br)cc1` [Example 6, N—(N-(4-bromophenyl)carbamimidoyl)-4,4-difluoropiperidine-1-carboximidamide hydrochloride] were, in that order, 6 to 15 µM and more than 4 µM. The matching figures for `CSc1ccc(NC(=N)NC(=N)N2CCC(F)(F)CC2)cc1` [Example 8, N—(N-(4-(methythio)phenyl)carbamimidoyl)-4,4-difluoropiperidine-1-carboximidamide hydrochloride]: 6 to 15 µM and more than 4 µM. The matching figures for `N=C(NC(=N)N1CCC(F)(F)CC1)Nc1ccc(SC(F)(F)F)cc1` [Example 9, N—(N-(4-(trifluoromethythio)phenyl)carbamimidoyl)-4,4-difluoro piperidine-1-carboximidamide hydrochloride]: less than 6 µM and 2 to 4 µM. As for `CC(C)c1ccc(NC(=N)NC(=N)N2CCC(F)(F)CC2)cc1` [Example 10, N—(N-(4-isopropylphenyl)carbamimidoyl)-4,4-difluoropiperidine-1-carboximidamide hydrochloride], the IC50 in the assay with SK-MEL-28 cells is 6 to 15 µM; in the assay on A549 cells it was more than 4 µM.

Take `N=C(NC(=N)N1CCC(F)(F)CC1)Nc1ccc(F)c(Cl)c1` [Example 11, N—(N-(3-chloro-4-fluorophenyl)carbamimidoyl)-4,4-difluoropiperidine-1-carboximidamide hydrochloride]: the IC50 in the assay on SK-MEL-28 cells is 6 to 15 µM; with A549 cells, more than 4 µM. The matching figures for `N=C(NC(=N)N1CCC(F)(F)CC1)Nc1cccc(Oc2ccccc2)c1` [Example 13, N—(N-(3-phenoxyphenyl)carbamimidoyl)-4,4-difluoropiperidine-1-carboximidamide hydrochloride]: less than 6 µM and 2 to 4 µM.

`N=C(NC(=N)N1CCSC1)Nc1ccc(SC(F)(F)F)cc1` [Example 14, N—(N-(4-(trifluoromethythio)phenyl)carbamimidoyl)thiazolidine-3-carboximidamide hydrochloride]: the IC50 in the assay on SK-MEL-28 cells was less than 6 µM; in the assay with A549 cells, 2 to 4 µM.

For `N=C(NC(=N)N1CCC(F)(F)CC1)Nc1ccc(OC(F)(F)F)cc1` [Example 17, N—(N-(4-(trifluoromethoxy)phenyl)carbamimidoyl)-4,4-difluoropiperidine-1-carboximidamide acetate], in the assay with A549 cells, the IC50 was in the range of 2 to 4 µM. On the same count and under the same terms, the value for `N=C(NC(=N)N1CCC(F)(F)CC1)Nc1ccc(I)c(Cl)c1` [Example 18, N—(N-(3-chloro-4-iodophenyl)carbamimidoyl)-4,4-difluoropiperidine-1-carboximidamide acetate] was 2 to 4 µM. Regarding `N=C(NC(=N)N1CCC(F)(F)CC1)Nc1ccc(C(F)(F)F)cc1` [Example 21, N—(N-(4-(trifluoromethyl)phenyl)carbamimidoyl)-4,4-difluoropiperidine-1-carboximidamide acetate], the IC50 was less than 6 µM in the assay on SK-MEL-28 cells and 2 to 4 µM with A549 cells.

For the compound `N=C(NC(=N)N1CCC(F)(F)CC1)Nc1ccc(I)c(Br)c1` [Example 22, N—(N-(3-bromo-4-iodophenyl)carbamimidoyl)-4,4-difluoropiperidine-1-carboximidamide acetate], the IC50 with SK-MEL-28 cells is less than 6 µM; in the assay on A549 cells it was 2 to 4 µM.

Regarding `N=C(NC(=N)N1CCC(F)(F)CC1)Nc1ccc(Oc2ccccc2)cc1` [Example 23, N—(N-(4-phenoxyphenyl)carbamimidoyl)-4,4-difluoropiperidine-1-carboximidamide acetate], the concentration for half-maximal inhibition (IC50) was less than 6 µM in the assay with SK-MEL-28 cells and 2 to 4 µM in the assay with A549 cells.

Turning to `N=C(NC(=N)N1CCC(F)(F)C1)Nc1ccc(OC(F)(F)F)cc1` [Example 25, N—(N-(4-(trifluoromethoxy)phenyl)carbamimidoyl)-3,3-difluoropyrrolidine-1-carboximidamide acetate], the IC50 in the assay with SK-MEL-28 cells is less than 6 µM; in the assay with A549 cells it was 2 to 4 µM. The like results for `N=C(NC(=N)N1CCC(F)(F)CC1)Nc1ccc(Br)c(Br)c1` [Example 26, N—(N-(3,4-dibromophenyl)carbamimidoyl)-4,4-difluoropiperidine-1-carboximidamide acetate] were, in that order, 6 to 15 µM and 2 to 4 µM. The like results for `N=C(NC(=N)N1CCC(F)(F)CC1)Nc1ccc(OC(F)(F)F)c(F)c1` [Example 27, N—(N-(3-fluoro-4-(trifluoromethoxy)phenyl)carbamimidoyl)-4,4-fluoropiperidine-1-carboximidamide acetate] were, in that order, less than 6 µM and less than 2 µM.

Regarding `N=C(NC(=N)N1CCC(F)(F)C1)Nc1ccc(OC(F)(F)F)c(Br)c1` [Example 39, N—(N-(3-bromo-4-(trifluoromethoxy)phenyl)carbamimidoyl)-3,3-difluoropyrrolidine-1-carboximidamide acetate], the IC50 in the assay with A549 cells lay in the range of 2 to 4 µM. Regarding `N=C(NCc1ccccc1Br)NC(=N)N1CCC(F)(F)CC1` [Example 40, N—(N-(2-bromobenzyl)carbamimidoyl)-4,4-difluoropiperidine-1-carboximidamide hydrochloride], the IC50 in the assay with A549 cells is more than 4 µM. Consider `N=C(NCc1ccc(Br)cc1)NC(=N)N1CCC(F)(F)CC1` [Example 55, N—(N-(4-bromobenzyl)carbamimidoyl)-4,4-difluoropiperidine-1-carboximidamide acetate], for which, in the assay with A549 cells, the IC50 was more than 4 µM.
